In patent US20030109529A1, “Use of s-triazines for treating Apicomplexan parasitic infections” (priority 1999, published 2003):

Legend:
[1] = rats given a single injection; cited from earlier work
[2] = tested on: multi-drug resistant P. falciparum (MDR); assay: In vitro RBC culture, multi-drug resistant P. falciparum; assay type: cell-based, Plasmodium falciparum
Method: (§1) Briefly, a red blood cell suspension at a malarial (wild type Plasmodium falciparum) infection rate of approximately 1% was added to each well of a 96 well micro titer plate. The test compound was added to the cultures at final concentrations of 2.0, 0.2 or 0.02 μM. and incubated in an environment of 5% CO2, 5% O2 and 90% N2 at 37° C. Every 24 hrs the dish was removed, 100 μl of spent medium removed and 100 μl of fresh, compound containing-medium was added back to each well. This procedure was repeated daily.
(§2) At 48 hrs and again at 96 hrs, blood smears were made from each well and 500 Red Blood Cells (RBCs) were counted and inspected for malarial infection. The percent infection rate was then determined for each experimental condition tested.
(§3) Malaria parasite (P. falciparum) was grown in culture as described previously. At 48 hours and 96 hours of treatment, red blood cells were taken from culture and the percent red blood cells infected with the parasite was determined by microscopic examination.

rat DHFR = target: T1, rat DHFR (Rattus norvegicus, UniProt Q920D2); assay: DHFR enzyme assay, rat liver homogenate; assay type: biochemical
T1 construct: tested using homogenates of calf liver, rat liver and cultures of P. falciparum; from tissue; host or cells: rat liver homogenate
T1 sequence (Q920D2 1-187): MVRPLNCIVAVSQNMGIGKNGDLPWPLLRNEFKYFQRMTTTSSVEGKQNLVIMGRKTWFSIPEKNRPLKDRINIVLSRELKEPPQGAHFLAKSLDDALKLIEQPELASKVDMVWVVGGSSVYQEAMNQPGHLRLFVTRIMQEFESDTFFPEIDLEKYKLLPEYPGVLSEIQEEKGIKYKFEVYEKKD
Method: (§4) The ability of atrazine to inhibit dihydrofolate reductase (DHFR) is also tested using homogenates of calf liver, rat liver and cultures of P. falciparum. Atrazine's ability to inhibit mammalian DHFR (i.e., calf DHFR and rat DHFR) as well as malarial DHFR is determined using standard enzyme assays and the Michaelis-Menton analysis. The Michaelis-Menton hypothesis states that a complex is formed between an enzyme and its substrate and that the complex then dissociates to yield free enzyme and the reaction products, with the rate of dissociation determining the overall rate of substrate-product conversion. For a more complete review of the Michaelis constant, see Benet et al., 1996, Pharmacokinetics, Chapter 1:3-27, In Goodman & Gilman's The Pharmacological Basis of Therapeutics, Ninth Edition, McGraw-Hill; and Ross, 1996, Pharmacodynamics, Chapter 2:29-41, Id.

P. berghei = assay: In vivo efficacy against P. berghei in rats, single oral dose; set-up: species or system rat; details: single oral dose (Chloroquine 20 mg/kg, Atrazine 100 mg/kg) 4 h after inoculation
Method: Rats weighing 60-70 gms were inoculated with P. berghei infected rat red blood cells. […] Blood was obtained 4 days and 11 days later and parasitemia assessed using light microscopy of blood smears. The percent parasitemia (i.e., the presence of parasites in the blood) was then determined for each group and the data are summarized in the table below: […]

Toxoplasma gondii = assay: In vitro anti-Toxoplasma test in human foreskin fibroblasts; assay type: cell-based; details: 24 hrs after treatment
Method: Human foreskin fibroblasts are grown to confluency in 12 well plates. Next, Toxoplasma gondii is added to the plates. The resultant cultures are treated with the test compound 24 hrs later. […]

[3] = tested on: wild type Plasmodium falciparum; assay: In vitro red blood cell culture infected with wild type Plasmodium falciparum, percent RBCs infected; assay type: cell-based
Method: The in vitro method used to test the anti-malarial effectiveness of various s-triazines was adapted from Trager, 1994, Methods in Cell Biology Vol 45:7-26.
as §1, §2, §3
The data in Table 2 represent percent red blood cell (RBC) infection rate at 48 hrs of treatment with the antimalarial test compound. Control cultures were 35% RBC infected.

[4] = tested on: chloroquine resistant P. falciparum (Clq res); assay: In vitro RBC culture, chloroquine resistant P. falciparum; assay type: cell-based, Plasmodium falciparum
[5] = tested on: mefloquine resistant P. falciparum (Mfl res); assay: In vitro RBC culture, mefloquine resistant P. falciparum; assay type: cell-based, Plasmodium falciparum
Method: as §1, §2
The procedure set forth in Example 1 is utilized for testing the effectiveness of mefloquine and atrazine against mefloquine-resistant P. falciparum.
as §3

[6] = tested on: antifolate-resistant P. falciparum; assay: In vitro RBC culture, antifolate-resistant P. falciparum; assay type: cell-based, Plasmodium falciparum; details: Example 4, 48 hrs or 96 hrs after treatment
Method: as §1, §2
The procedure set forth in Example 1 is utilized for testing the effectiveness of triazine and atrazine against antifolate-resistant P. falciparum.

[7] = tested on: yeast transfected with malarial dihydrofolate reductase (folate sensitive); assay: Yeast assay for antifolate activity, folate sensitive yeast; assay type: cell-based, Saccharomyces cerevisiae; details: 48 hours of treatment
Method: (§5) We have established a in vitro yeast assay model for determining sensitivity to antifolate anti-malarials.
(§6) Saccharomyces cerevisiae was grown in culture and after 48 hours of treatment as described below the growth of the yeast was determined. Control (i.e., yeast grown with no treatment) is considered to be 100% growth. Drug treatment was then related to the controls as a percent of control growth. S. cerevisiae types tested included wild type yeast, yeast made sensitive to antifolate antimalarials by transfecting yeast with malarial dihydrofolate reductase (folate sensitive or folate sen), yeast transfected but not sensitive to antifolate antimalarials (folate insensitive or folate insen).

Plasmodium berghi = assay: In vivo evaluation against Plasmodium berghi in Lewis rats, intravenous treatment; set-up: species or system rat; details: 20 mg/kg I.V., 24 and 48 hrs
Method: In vivo testing was performed using juvenile female Lewis rats. Rats were inoculated intraperitoneally with 30,000,000 Plasmodium berghi infected RBCs. Rats were bled daily from the tail vein and, when parasitemia reached 1-3%, therapy was begun.
Blood smears were obtained at 24 and 48 hrs. The percent RBCs infected was then calculated after counting and inspecting 500 RBCs for each rat.

wild type yeast = assay: Yeast assay for antifolate activity, wild type yeast; assay type: cell-based, Saccharomyces cerevisiae; details: 48 hours of treatment
[8] = tested on: yeast transfected but not sensitive to antifolate antimalarials (folate insensitive); assay: Yeast assay for antifolate activity, folate insensitive yeast; assay type: cell-based, Saccharomyces cerevisiae; details: 48 hours of treatment
Method: as §5, §6

[9] = tested on: wild type rodent malaria (Plasmodium berghi); assay: In vitro evaluation against wild type rodent malaria; assay type: cell-based; details: Experiment 5, 48 hrs or 96 hrs after treatment
Method: as §1, §2
The procedure set forth in Example 1 is utilized for testing compounds against wild type rodent malaria (Plasmodium berghi).

malarial DHFR = assay: DHFR enzyme assay, cultures of P. falciparum; assay type: biochemical
Method: as §4

CCNc1nc(Cl)nc(NC(C)C)n1 [atrazine, 2-chloro-4-ethylamino-6-isopropylamino-s-triazine]
LD50 [1]: ~3000 mg/kg | effectiveness against resistant parasite (FIGS. 8, 9) ([2]; multi-drug resistant, 48 and 96 hours): effective against several classic forms of resistance | Red Blood Cell Infection Rate ([2]; multidrug-resistant, 96 hrs of treatment, 0.02 μM, control 25): 3% | inhibition of DHFR (rat DHFR): does not inhibit DHFR | Parasitemia Day 4 (P. berghei; ethanol control 24%): 6.0% | Parasitemia Day 11 (P. berghei; ethanol control 42%): 10.5% | percentage of fibroblast cells infected with T. gondii (Toxoplasma gondii): relatively low percentage of the cells being infected | Red Blood Cell Infection Rate ([3]; 48 hrs of treatment, 0.02 μM, control 35%): 3% | Red Blood Cell Infection Rate ([3]; 48 hrs of treatment, 0.2 μM, control 35%): 0% | Red Blood Cell Infection Rate ([3]; 48 hrs of treatment, 2.0 μM, control 35%): 0% | effectiveness compared with chloroquine (text to Table 2) ([3]; 48 hrs of treatment, 2.0-0.02 μM): substantially similar in effectiveness as chloroquine | percentage of RBCs infected with P. falciparum (FIGS. 1-4) ([3]; low concentrations, 48 hrs or 96 hrs after treatment): relatively low percentage of the RBCs being infected | Red Blood Cell Infection Rate ([3]; wild type, 96 hrs of treatment, 0.02 μM, control 18): 3% | percentage of RBCs infected with chloroquine-resistant P. falciparum ([4]; Example 2, 48 hrs or 96 hrs after treatment): relatively low percentage of the RBCs being infected | effectiveness against resistant parasite (FIGS. 8, 9) ([4]; chloroquine resistant, 48 and 96 hours): effective against several classic forms of resistance | Red Blood Cell Infection Rate ([4]; chloroquine-resistant, 96 hrs of treatment, 0.02 μM, control 28): 4% | percentage of RBCs infected with mefloquine-resistant P. falciparum ([5]; Example 3, 48 hrs or 96 hrs after treatment): relatively low percentage of the RBCs being infected | effectiveness against resistant parasite (FIGS. 8, 9) ([5]; mefloquine resistant, 48 and 96 hours): effective against several classic forms of resistance | Red Blood Cell Infection Rate ([5]; mefloquine-resistant, 96 hrs of treatment, 0.02 μM, control 24): 3% | percentage of RBCs infected with antifolate-resistant P. falciparum [6]: relatively low percentage of the RBCs being infected | yeast growth (FIG. 7) [7]: Neither chloroquine (Clq) nor atrazine affected growth | in vivo percentage of RBCs infected with P. berghi compared to non-treated controls (FIG. 6) (Plasmodium berghi): disease dramatically reduced | yeast growth (FIG. 7) (wild type yeast): Neither chloroquine (Clq) nor atrazine affected growth | yeast growth (FIG. 7) [8]: Neither chloroquine (Clq) nor atrazine affected growth | percentage of RBCs infected with P. berghi [9]: relatively low percentage of the RBCs being infected | inhibition of DHFR (malarial DHFR): does not inhibit DHFR
